This is an account of results in patent publication US20250136581A1, “SUBSTITUTED TRIAZOLE DERIVATIVE, PREPARATION METHOD THEREFOR, PHARMACEUTICAL COMPOSITION THEREOF, AND USE THEREOF” (SHANGHAI SIMR BIOTECHNOLOGY CO., LTD., priority 2021, published 2025).

Test [1] has as its target human α5β3γ2 receptors (α5-GABAA receptor) (Homo sapiens (Human), UniProt P18507+P31644). The test is described as follows: 3H-flunitrazepam competition binding, human α5β3γ2 GABAA receptor. The note with it: HEK293 cell membranes, 1 nM 3H-flunitrazepam; read-out: α5-GABAAR Ki. Summed up:
(§1)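 Radioligand displacement of 1 nM 3H-flunitrazepam from membranes of HEK293 lines stably expressing the human subtypes, 1 h at room temperature, compound in 8-point 4-fold series. Bound label on GF/C filters counted by scintillation; Ki derived from fitted IC50, with flumazenil as low control.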

The target in the next test is human α2β3γ2 receptors (Homo sapiens (Human), UniProt P18507+P47869). The test is described as follows: 3H-flunitrazepam competition binding, human α2β3γ2 GABAA receptor. The note with it: HEK293 cell membranes, 1 nM 3H-flunitrazepam; read-out: Ki α2. Summed up: as §1
Test [2] deals with α5-GABAA receptor (α5, β3, γ2 subunits) (Homo sapiens (Human), UniProt P18507+P31644). As to the kind of experiment: Whole cell patch clamp, inverse agonist efficacy in HEK293 cells expressing α5-GABAA receptor. It is filed as cell-based. The settings on record: HEK293, drug 100 nM, GABA 0.05 μM, −60 mV; read-out: Compound inverse agonist efficacy %. The essentials: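 Compounds screened at 100 nM against current induced by 0.05 μM GABA in monoclonal HEK293 cells stably expressing α5β3γ2 GABAA receptors. Recording by whole-cell voltage clamp (−60 mV, pH 7.4 bath, CsCl pipette); efficacy calculated from leak-corrected currents before and after drug.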
In general terms: Patch clamp records ionic current or voltage across a cell membrane.

A word on the Ki: it is a measure of affinity in units of concentration, obtained from inhibition or displacement. With `Cc1nnn(-c2ccc(C(F)F)cc2)c1COc1ccc(N2CC(=O)NC(C)C2)nn1` (stereo not drawn) [Example 6, 4-(6-((1-(4-(Difluoromethyl)phenyl)-4-methyl-1H-1,2,3-triazol-5-yl)methoxy)pyridazin-3-yl)-6-methylpiperazin-2-one], the Ki in test [1] amounted to 0.91 nM; on human α2β3γ2 receptors it was 15.9 nM. For the same compound, the inhibition at 0.1 µM in test [2] was 42.5%.
